Format in all cases: ADME, organism-based
Series [1] in a line: Prodrug conversion in C57Bl/6 mouse brain assessed as increase in sobetirome level at 1.5 micromol/kg, ip after 30 mins by LC-MS/MS analysis relative to sobetirome control. The settings on record: in vivo, 0.5 h, dose 1.5 µmol/kg.
The nature of series [2]: AUC (0 to t) in C57Bl/6 mouse serum assessed as sobetirome level at 1.5 microM/Kg, ip upto 8 hrs by LC-MS/MS analysis. Further details: route intraperitoneal, dose 1.5 µM/Kg, time <=8. Particulars: in vivo.
A short description of series [3]: Ratio of AUC (0 to t) in brain to liver in C57Bl/6 mouse assessed as sobetirome level at 1.5 microM/Kg, ip upto 8 hrs by LC-MS/MS analysis. The settings on record: in vivo.
The nature of series [4]: AUC (0 to t) in C57Bl/6 mouse brain assessed as sobetirome level at 1.5 microM/Kg, ip upto 8 hrs by LC-MS/MS analysis. Set-up: route intraperitoneal, dose 1.5 µM/Kg, time <=8. Particulars: in vivo.
The nature of series [5]: Ratio of AUC (0 to t) in brain to serum in C57Bl/6 mouse assessed as sobetirome level at 1.5 microM/Kg, ip upto 8 hrs by LC-MS/MS analysis.
The nature of series [6]: Ratio of AUC in brain to liver in C57Bl/6 mouse assessed as sobetirome level at 1.5 microM/Kg, ip upto 8 hrs by LC-MS/MS analysis. Particulars: in vivo.
The nature of series [7]: Ratio of AUC in brain to serum in C57Bl/6 mouse assessed as sobetirome level at 1.5 microM/Kg, ip upto 8 hrs by LC-MS/MS analysis.
A short description of series [8]: AUC (0 to t) in C57Bl/6 mouse liver assessed as sobetirome level at 1.5 microM/Kg, ip upto 8 hrs by LC-MS/MS analysis. Set-up: route intraperitoneal, dose 1.5 µM/Kg, time <=8. Particulars: in vivo.
Series [9] in a line: Half life in iv dosed mouse. Particulars: in vivo.
Series [10] can be described thus: Ratio of AUC in C57Bl/6 mouse brain to liver at 1.5 microM/Kg, ip upto 8 hrs by LC-MS/MS analysis. The settings on record: in vivo.
A short description of series [11]: AUC (0 to t) in C57Bl/6 mouse brain at 1.5 microM/Kg, ip upto 8 hrs by LC-MS/MS analysis. Set-up: route intraperitoneal, dose 1.5 µM/Kg, time <=8. Particulars: in vivo.
The nature of series [12]: Ratio of AUC in C57Bl/6 mouse brain to serum at 1.5 microM/Kg, ip upto 8 hrs by LC-MS/MS analysis. Particulars: read-out: Ratio AUC.
Series [13] in a line: AUC (0 to t) in C57Bl/6 mouse liver at 1.5 microM/Kg, ip upto 8 hrs by LC-MS/MS analysis. Set-up: route intraperitoneal, dose 1.5 µM/Kg, time <=8. The settings on record: in vivo.
Series [14] is described as follows: AUC (0 to t) in C57Bl/6 mouse serum at 1.5 microM/Kg, ip upto 8 hrs by LC-MS/MS analysis. Particulars: in vivo. Further details: route intraperitoneal, dose 1.5 µM/Kg, time <=8.

For the molecule `Cc1cc(OCC(=O)OCCNC(=O)[C@@H](N)C(C)C)cc(C)c1Cc1ccc(O)c(C(C)C)c1.Cl`, the Drug metabolism result in series [1] is given as “Metabolite_Notdetected”.

As for `Cc1cc(OCC(=O)Oc2ccc(C[C@H](N)C(=O)O)cc2)cc(C)c1Cc1ccc(O)c(C(C)C)c1.Cl`, in series [1], the Drug metabolism result was “Metabolite_Notdetected”.

Turning to `Cc1cc(OCC(=O)OC[C@H]2CCCN2)cc(C)c1Cc1ccc(O)c(C(C)C)c1`, the Drug metabolism result in series [1] is reported as “Metabolite_Notdetected”.

Take `Cc1cc(OCC(=O)OCC[N+](C)(C)C)cc(C)c1Cc1ccc(O)c(C(C)C)c1.[Br-]`: the Drug metabolism entry in series [1] is listed as “Metabolite_Notdetected”.

For the molecule `Cc1cc(OCC(=O)OC2CNC2)cc(C)c1Cc1ccc(O)c(C(C)C)c1`, the Drug metabolism entry in series [1] was “Metabolite_Notdetected”.

As for `Cc1cc(OCC(=O)OC2CCCNC2)cc(C)c1Cc1ccc(O)c(C(C)C)c1` (stereo not given), the Drug metabolism result in series [1] is “Metabolite_Notdetected”.

Turning to `Cc1cc(OCC(=O)OCCN2CCOCC2)cc(C)c1Cc1ccc(O)c(C(C)C)c1`, the Drug metabolism result in series [1] is given as “Metabolite_Notdetected”.

Take `Cc1cc(OCC(=O)OC2(C)CNC2)cc(C)c1Cc1ccc(O)c(C(C)C)c1`: the Drug metabolism result in series [1] was “Metabolite_Notdetected”.

In the case of `Cc1cc(OCC(=O)OCC2CCCCN2)cc(C)c1Cc1ccc(O)c(C(C)C)c1` (stereo not given), the Drug metabolism entry in [1] was “Metabolite_Notdetected”.

In the case of `Cc1cc(OCC(=O)OCCN)cc(C)c1Cc1ccc(O)c(C(C)C)c1.Cl`, the results for the AUC in [2], in series [4] and in [8] were 367.8 ng·h/g, 17.1 ng·h/g and 1897 ng·h/g, respectively. Also, the “Ratio AUC” value in series [3] was determined as 0.009; in [5], 0.05. The “fold change (FC)” value is on record as 4 in [6], 2 in series [1] and 7 in series [7].

`Cc1cc(OCC(=O)OCCNC(=O)[C@@H](N)CCCCN)cc(C)c1Cc1ccc(O)c(C(C)C)c1.Cl.Cl`: the Drug metabolism result in [1] is “Metabolite_Notdetected”.

With `Cc1cc(OCC(=O)O)cc(C)c1Cc1ccc(O)c(C(C)C)c1` [SOBETIROME], the half-life in series [9] is 1.3 h. The “Ratio AUC” value in [10] is recorded as 0.004. Besides, the AUC turned out to be 10.8 ng·h/g in [11], 2933 ng·h/g in series [13] and 681.7 ng·h/g in series [14]. In addition, the Kp at 8 h in series [12] came out at 0.02. Besides, the Drug metabolism result in series [1] is “Metabolite_Notdetected”.

For `CCOC(=O)COc1cc(C)c(Cc2ccc(O)c(C(C)C)c2)c(C)c1`, the Drug metabolism entry in series [1] was “Metabolite_Notdetected”.

On to `Cc1cc(OCC(=O)OC2CCNCC2)cc(C)c1Cc1ccc(O)c(C(C)C)c1`, for which the Drug metabolism entry in [1] is “Metabolite_Notdetected”.

For the molecule `Cc1cc(OCC(=O)OCCN(C)C)cc(C)c1Cc1ccc(O)c(C(C)C)c1`, in [1], the Drug metabolism result is reported as “Metabolite_Notdetected”.

For the molecule `Cc1cc(OCC(=O)OC[C@H]2O[C@@H](O)[C@H](O)[C@@H](O)[C@@H]2O)cc(C)c1Cc1ccc(O)c(C(C)C)c1`, the Drug metabolism result in series [1] is “Metabolite_Notdetected”.

With `Cc1cc(OCC(=O)OC2CN(C)C2)cc(C)c1Cc1ccc(O)c(C(C)C)c1`, the Drug metabolism entry in [1] was “Metabolite_Notdetected”.

These data come from ChEMBL document CHEMBL4715778, “Sobetirome prodrug esters with enhanced blood-brain barrier permeability” (Bioorg Med Chem, 2016).
